Test results reported in patent US20260158009A1 (GENZYME CORPORATION, priority 2023, published 2026).

Tests used:
[1] = test system: U937 cells; experiment: Cellular assay in U937 cells: activity of RIPK1 inhibitors on TNFα/zVAD.fmk-induced cell death (necroptosis), CellTiter 96 AQueous (MTS) readout; type: cell-based; conditions: Homo sapiens, U-937
How it was run: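 Necroptosis was measured by viable-cell MTS reduction (4 h, absorbance 490 nm) after overnight (18–24 h) 37° C culture. Cell suspensions of U937 cells carried TNFα (100 ng/ml) plus zVAD.fmk (50 μM) before compound was added. A 10-point curve (10 μM–0.26 nM or 1 μM–0.07 nM) was run in duplicate, normalised to the control lacking TNFα/zVAD.fmk.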

[2] = target: T1, hRIPK1 (aa 1-375) fusion protein (Homo sapiens, UniProt Q13546); experiment: ADP-Glo kinase assay: catalytic activity of RIPK1 (autophosphorylation, conversion of ATP to ADP); type: biochemical
T1 construct: hRIPK1 (aa 1-375) fusion protein
T1 sequence (Q13546 1-375): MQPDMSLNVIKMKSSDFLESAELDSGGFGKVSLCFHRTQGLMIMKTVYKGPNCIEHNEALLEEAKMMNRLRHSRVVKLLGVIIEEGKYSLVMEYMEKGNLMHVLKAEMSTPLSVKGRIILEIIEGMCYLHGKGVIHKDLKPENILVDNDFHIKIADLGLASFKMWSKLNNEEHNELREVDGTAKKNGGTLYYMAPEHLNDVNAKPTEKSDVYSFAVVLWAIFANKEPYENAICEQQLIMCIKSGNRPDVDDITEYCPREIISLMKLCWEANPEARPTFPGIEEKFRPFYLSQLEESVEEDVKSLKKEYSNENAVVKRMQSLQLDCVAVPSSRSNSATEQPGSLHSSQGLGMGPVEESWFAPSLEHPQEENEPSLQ
How it was run: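 hRIPK1 (aa 1-375) fusion protein (3.6 μg/ml final) was preincubated 30 min at rt with compound (33300-1.69 nM, 1% DMSO), then 50 μM ATP was added for 240 min at rt. ADP from autophosphorylation was measured by ADP-Glo luminescence and curves fitted by nonlinear regression.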

SMILES	IC50 [1]	IC50 [2]
COc1cc(C[C@H]2CC[C@H](C(=O)N3OCC[C@H]3c3cncc(C)c3)CC2)cn2nc(C)nc12 [compound 383, trans-[4-[(8-methoxy-2-methyl-[1,2,4]triazolo[1,5-a]pyridin-6-yl)methyl]cyclohexyl]-[(3S)-3-(5-methylpyridin-3-yl)-1,2-oxazolidin-2-yl]methanone]	0.047 µM	0.081 µM
Cc1cnc([C@@H]2CCON2C(=O)[C@H]2CC[C@H](Cc3cc(C)ncc3F)CC2)cn1 [compound 384, trans-[4-[(5-fluoro-2-methylpyridin-4-yl)methyl]cyclohexyl]-[(3S)-3-(5-methylpyrazin-2-yl)-1,2-oxazolidin-2-yl]methanone]	0.007 µM	0.028 µM
Cc1cnc([C@@H]2CCON2C(=O)[C@H]2CC[C@H](Cc3cc(C)ncc3Cl)CC2)cn1 [compound 385, trans-[4-[(5-chloro-2-methylpyridin-4-yl)methyl]cyclohexyl]-[(3S)-3-(5-methylpyrazin-2-yl)-1,2-oxazolidin-2-yl]methanone]	0.003 µM	0.024 µM
Cc1ccc([C@@H]2CCON2C(=O)[C@H]2CC[C@H](Cc3cc(C)ncc3F)CC2)cn1 [compound 386, trans-[4-[(5-fluoro-2-methylpyridin-4-yl)methyl]cyclohexyl]-[(3S)-3-(6-methylpyridin-3-yl)-1,2-oxazolidin-2-yl]methanone]	0.013 µM	0.025 µM
Cc1ccc([C@@H]2CCON2C(=O)[C@H]2CC[C@H](Cc3ccc(C)nn3)CC2)cn1 [compound 387, trans-[4-[(6-methylpyridazin-3-yl)methyl]cyclohexyl]-[(3S)-3-(6-methylpyridin-3-yl)-1,2-oxazolidin-2-yl]methanone]	1.88 µM	0.995 µM
Cc1ccc(C[C@H]2CC[C@H](C(=O)N3OCC[C@H]3c3cnc(C)c(F)c3)CC2)nn1 [compound 388, trans-[(3S)-3-(5-fluoro-6-methylpyridin-3-yl)-1,2-oxazolidin-2-yl]-[4-[(6-methylpyridazin-3-yl)methyl]cyclohexyl]methanone]	0.176 µM	0.097 µM
Cc1ccc([C@@H]2CCON2C(=O)[C@H]2CC[C@H](Cc3cc(C)ncc3Cl)CC2)cn1 [compound 389, trans-[4-[(5-chloro-2-methylpyridin-4-yl)methyl]cyclohexyl]-[(3S)-3-(6-methylpyridin-3-yl)-1,2-oxazolidin-2-yl]methanone]	0.013 µM	0.02 µM
Cc1ccc([C@@H]2CCON2C(=O)[C@H]2CC[C@H](Cc3ccc4nc(N)nn4c3)CC2)cn1 [compound 391, [4-[(2-amino-[1,2,4]triazolo[1,5-a]pyridin-6-yl)methyl]cyclohexyl]-[(3S)-3-(6-methylpyridin-3-yl)-1,2-oxazolidin-2-yl]methanone]	0.064 µM	0.063 µM
Cc1ncc([C@@H]2CCON2C(=O)[C@H]2CC[C@H](Cc3cc(F)c4ncnn4c3)CC2)cc1F [compound 392, trans-[(3S)-3-(5-fluoro-6-methylpyridin-3-yl)-1,2-oxazolidin-2-yl]-[4-[(8-fluoro-[1,2,4]triazolo[1,5-a]pyridin-6-yl)methyl]cyclohexyl]methanone]	0.018 µM	0.032 µM
Cc1ncc(C[C@H]2CC[C@H](C(=O)N3OCC[C@H]3c3cnc(C)c(F)c3)CC2)c(C)n1 [compound 393, [4-[(2,4-dimethylpyrimidin-5-yl)methyl]cyclohexyl]-[(3S)-3-(5-fluoro-6-methylpyridin-3-yl)-1,2-oxazolidin-2-yl]methanone]	0.033 µM	0.051 µM
Cc1cc(C[C@H]2CC[C@H](C(=O)N3OCC[C@H]3c3cnccn3)CC2)c(F)cn1 [compound 394, trans-[4-[(5-fluoro-2-methylpyridin-4-yl)methyl]cyclohexyl]-[(3S)-3-pyrazin-2-yl-1,2-oxazolidin-2-yl]methanone]	0.005 µM	0.014 µM
Cc1cnc([C@@H]2CCON2C(=O)[C@H]2CC[C@H](Cc3ccnn3C)CC2)cn1 [compound 395, trans-[(3S)-3-(5-methylpyrazin-2-yl)-1,2-oxazolidin-2-yl]-[4-[(2-methylpyrazol-3-yl)methyl]cyclohexyl]methanone]	0.045 µM	0.044 µM
Cc1cc(C[C@H]2CC[C@H](C(=O)N3OCC[C@H]3c3cnccn3)CC2)c(Cl)cn1 [compound 396, trans-[4-[(5-chloro-2-methylpyridin-4-yl)methyl]cyclohexyl]-[(3S)-3-pyrazin-2-yl-1,2-oxazolidin-2-yl]methanone]	0.004 µM	0.014 µM
Cc1ccc([C@@H]2CCON2C(=O)[C@H]2CC[C@H](Cc3ccnn3C)CC2)cn1 [compound 397, trans-[4-[(2-methylpyrazol-3-yl)methyl]cyclohexyl]-[(3S)-3-(6-methylpyridin-3-yl)-1,2-oxazolidin-2-yl]methanone]	0.163 µM	0.061 µM
Cc1cc(C[C@H]2CC[C@H](C(=O)N3OCC[C@H]3c3cnc(C)c(F)c3)CC2)cnn1 [compound 398, trans-[(3S)-3-(5-fluoro-6-methylpyridin-3-yl)-1,2-oxazolidin-2-yl]-[4-[(6-methylpyridazin-4-yl)methyl]cyclohexyl]methanone]	0.182 µM	0.064 µM
Cc1ncc(C[C@H]2CC[C@H](C(=O)N3OCC[C@H]3c3cnc(C)c(F)c3)CC2)c(C(F)(F)F)n1 [compound 399, [(3S)-3-(5-fluoro-6-methylpyridin-3-yl)-1,2-oxazolidin-2-yl]-[4-[[2-methyl-4-(trifluoromethyl)pyrimidin-5-yl]methyl]cyclohexyl]methanone]	0.274 µM	0.085 µM
Cc1ccc([C@@H]2CCON2C(=O)[C@]2(C)CC[C@@H](Cc3cc(C)c4nc(C)nn4c3)CC2)cn1 [compound 400, trans-[4-[(2,8-dimethyl-[1,2,4]triazolo[1,5-a]pyridin-6-yl)methyl]-1-methylcyclohexyl]-[(3S)-(6-methylpyridin-3-yl)-1,2-oxazolidin-2-yl]methanone]	0.009 µM	0.019 µM
Cc1nc2c(C)cc(C[C@H]3CC[C@@](C)(C(=O)N4OCC[C@H]4c4cnc(C)c(F)c4)CC3)cn2n1 [compound 402]	1.13 µM	2 µM
Cc1nc2c(C)cc(C[C@H]3CC[C@](C)(C(=O)N4OCC[C@H]4c4cnc(C)c(F)c4)CC3)cn2n1 [compound 403, trans-[4-[(2,8-dimethyl-[1,2,4]triazolo[1,5-a]pyridin-6-yl)methyl]-1-methylcyclohexyl]-[(3S)-3-(5-fluoro-6-methylpyridin-3-yl)-1,2-oxazolidin-2-yl]methanone]	0.002 µM	0.015 µM
Cc1ncc([C@@H]2CCON2C(=O)[C@H]2CC[C@H](Cc3ccnn3C)CC2)cc1F [compound 404, trans-[(3S)-3-(5-fluoro-6-methylpyridin-3-yl)-1,2-oxazolidin-2-yl]-[4-[(2-methylpyrazol-3-yl)methyl]cyclohexyl]methanone]	0.022 µM	0.015 µM
Cc1cnc([C@@H]2CCON2C(=O)[C@H]2CC[C@H](Cc3cc(C)c4ncnn4c3)CC2)cn1 [compound 409, trans-[(3S)-3-(5-methylpyrazin-2-yl)-1,2-oxazolidin-2-yl]-[4-[(8-methyl-[1,2,4]triazolo[1,5-a]pyridin-6-yl)methyl]cyclohexyl]methanone]	0.066 µM	0.046 µM
Cc1cncc([C@@H]2CCON2C(=O)[C@H]2CC[C@H](Cc3cc(C)c4nc(C)nn4c3)CC2)n1 [compound 411, trans-[4-[(2,8-dimethyl-[1,2,4]triazolo[1,5-a]pyridin-6-yl)methyl]cyclohexyl]-[(3S)-3-(6-methylpyrazin-2-yl)isoxazolidin-2-yl]methanone]	0.036 µM	0.048 µM
